Earlier results, collected in PMC6854850 (MicrobiologyOpen, 2019).

Target: T1, OmpP (Escherichia coli, UniProt P34210)
T1 sequence (P34210 24-315): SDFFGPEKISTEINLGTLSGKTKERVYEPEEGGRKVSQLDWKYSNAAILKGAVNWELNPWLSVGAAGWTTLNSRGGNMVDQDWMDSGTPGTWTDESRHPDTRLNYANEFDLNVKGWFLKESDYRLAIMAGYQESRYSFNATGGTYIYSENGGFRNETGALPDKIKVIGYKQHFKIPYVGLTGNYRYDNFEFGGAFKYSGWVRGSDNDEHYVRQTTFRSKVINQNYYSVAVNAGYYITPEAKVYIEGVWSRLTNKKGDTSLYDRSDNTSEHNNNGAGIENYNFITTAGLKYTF
Conditions: ref Hwang et al., 2007

protamine
cleavage of AMP by OmpP, in words: has been shown to cleave
